Data published in patent publication US8063225B2, “Tricyclic compound derivatives useful in the treatment of neoplastic diseases, inflammatory disorders and immunomodulatory disorders” (Chembridge Corporation, priority 2006, dated 2011).

How the values were obtained:
IGF1 receptor = target: T1, IGF1 receptor (Homo sapiens, UniProt P08069); test: ELISA-based assay of IGF1 receptor autophosphorylation inhibition in cells; type: cell-based; conditions: IGF1R phosphorylation inhibition in MCF7 cells
T1 construct: MCF7 human breast cancer cells expressing IGF1 receptor; endogenous in cells; host or cells: MCF7 human breast cancer cells
T1 sequence (P08069 741-1367 limits assumed): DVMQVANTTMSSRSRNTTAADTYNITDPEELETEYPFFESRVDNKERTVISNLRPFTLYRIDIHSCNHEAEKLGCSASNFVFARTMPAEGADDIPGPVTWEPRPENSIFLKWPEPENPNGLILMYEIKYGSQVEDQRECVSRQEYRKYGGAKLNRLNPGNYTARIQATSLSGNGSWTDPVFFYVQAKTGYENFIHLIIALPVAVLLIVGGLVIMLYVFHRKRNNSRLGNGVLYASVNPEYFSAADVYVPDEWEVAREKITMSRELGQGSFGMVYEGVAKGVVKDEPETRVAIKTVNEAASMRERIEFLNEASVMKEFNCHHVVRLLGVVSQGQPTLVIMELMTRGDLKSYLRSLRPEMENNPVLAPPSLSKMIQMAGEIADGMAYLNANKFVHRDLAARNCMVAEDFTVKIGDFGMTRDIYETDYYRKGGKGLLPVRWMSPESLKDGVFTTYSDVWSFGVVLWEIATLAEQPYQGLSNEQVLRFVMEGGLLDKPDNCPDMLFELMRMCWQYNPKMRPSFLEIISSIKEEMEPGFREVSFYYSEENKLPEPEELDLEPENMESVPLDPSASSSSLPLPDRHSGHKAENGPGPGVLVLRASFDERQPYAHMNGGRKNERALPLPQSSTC
T1 sequence (P08069 31-736 partner limits assumed): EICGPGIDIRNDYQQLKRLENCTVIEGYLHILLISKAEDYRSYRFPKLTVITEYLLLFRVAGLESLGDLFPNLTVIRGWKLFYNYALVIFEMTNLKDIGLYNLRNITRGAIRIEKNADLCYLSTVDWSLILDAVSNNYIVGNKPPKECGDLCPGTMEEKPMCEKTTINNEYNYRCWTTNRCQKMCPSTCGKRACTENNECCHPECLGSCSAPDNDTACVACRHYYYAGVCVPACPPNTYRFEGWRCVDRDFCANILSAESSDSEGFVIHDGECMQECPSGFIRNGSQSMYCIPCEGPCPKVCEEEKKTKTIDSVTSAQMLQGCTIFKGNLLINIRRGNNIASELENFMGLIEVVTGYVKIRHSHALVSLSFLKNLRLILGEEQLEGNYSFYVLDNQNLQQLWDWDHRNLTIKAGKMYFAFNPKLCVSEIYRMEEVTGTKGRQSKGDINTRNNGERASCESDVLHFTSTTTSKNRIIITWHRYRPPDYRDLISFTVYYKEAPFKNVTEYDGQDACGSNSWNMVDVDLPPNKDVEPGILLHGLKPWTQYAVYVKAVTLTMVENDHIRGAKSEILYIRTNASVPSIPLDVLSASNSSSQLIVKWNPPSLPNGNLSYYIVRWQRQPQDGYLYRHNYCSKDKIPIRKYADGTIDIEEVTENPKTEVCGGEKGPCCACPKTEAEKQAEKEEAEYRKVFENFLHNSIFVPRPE
Protocol: In another embodiment, compounds that interact with the IGF1R kinase domain are tested in a cell-based assay system. In accordance with this embodiment, cells expressing a full-length IGF1 receptor or a fragment thereof containing the IGF1R kinase domain, are contacted with a candidate or a control compound and the ability of the compound to block tyrosine kinase activity of IGF1R within a cell is determined. This assay may be used to screen a single compound or a large library of candidate compounds. Typically, the cells or cell lines are of mammalian origin and they can express the IGF1 receptor, or functional IGF1R kinase domain fragment, endogenously or be genetically engineered to express the IGF1R, or functional fragment thereof. The ability of the candidate compound to inhibit IGF1R kinase activity can be determined by methods known to those skilled in the art. For example, the inhibition can be determined by ELISA-type assay or Western blot analysis with cell lysates or immunoprecipitated IGF1R receptor using various anti-IGF1R and anti-phosphotyrosine antibodies.
In general, cells expressing IGF1R are treated with modulators (i.e., inhibitors or activators) of IGF1R kinase activity and cell lysates are produced from these treated cells. IGF1Rs are isolated from the lysate by immunoprecipitation and analyzed for phosphotyrosine content. Alternatively, or in addition, cellular protein substrates phosphorylated by IGFR may be immunoprecipitated from the lysates and their degree of tyrosine phosphorylation determined.
MCF7 human breast cancer cells expressing IGF1 receptor or an engineered […] fibroblast cell line NIH 3T3 overexpressing full-length IGF1R are an exemplary cellular models in which to perform such assays. Such cells may be maintained in DMEM medium supplemented with 10% fetal bovine serum (FBS), 4% L-glutamine, 1% antibiotic solution (penicillin-Streptomycin) in a humidified atmosphere of 95% air and 5% CO2 at 37° C. Confluent cells in T175 cell culture flasks are incubated overnight with serum-free DMEM medium. After the serum starvation step, the cells are detached and split into a standard 96-well cell culture plate (one T175 flask per plate, 30 μl of cell suspension per plate well). Tested inhibitors from their 10 mM stock solutions in DMSO are subsequently added at various concentrations in serum-free DMEM medium for 1 hour incubation at 37° C. in CO2-incubator; total DMSO concentration in both treated and control wells is adjusted to 1%. Cells are then stimulated for 10 minutes with 100 nM IGF-1 added in 30 μl DMEM. After treatment, cells are lysed by addition of 30 μl of 4× lysis buffer (phosphate-buffered saline (PBS), 2% Triton-X100, 1 mM phenylmethylsulphonyl fluoride (PMSF) and 8 mM activated orthovanadate), mixing and incubation for 15 minute at room temperature. To prepare assay plates, 96-well ELISA Plates (Pierce Chemical, Reacti-bind plates) were coated by goat-anti-rabbit Fc antiserum by adding 0.25 μg antiserum per well in 0.2M sodium bicarbonate buffer per well and incubating overnight at 4° C. After incubation, the plate is washed three times by PBS with 0.02% Tween-20, supplied with 25 ng/50 μl per well of anti-IGF1R antibody (C-20, Santa Cruz Biotechnology) and incubated for several hours to overnight. Prior to the addition of the prepared cellular lysates, the antibody solution is aspirated, wells washed with PBS and supplied with 25 μl per well of Starting Block buffer (Pierce Chemical).
To measure tyrosine phosphorylation of the beta-subunits of the IGF1R, 25-50 μl of the lysates are transferred from the stimulation plate to the wells of the prepared assay plate and incubated overnight at 4° C. The wells are washed with PBS with 0.02% Tween-20, incubated with 50 μl of 1:3000 dilution of anti-phosphotyrosine 4G10-HRP antibody conjugate (Upstate Biotechnology) for 2 hours at room temperature and washed again. […]

IGF1R tyrosine kinase = target: T2, IGF1R tyrosine kinase (Homo sapiens, UniProt P08069); test: IGF1R tyrosine kinase assay (Kinase-Glo ATP depletion or PT66/PT100 AlphaScreen); conditions: biochemical tyrosine kinase assay
T2 construct: 6×His- or GST-tagged kinase domain fragments of the corresponding RTKs expressed in baculovirus system; host or cells: baculovirus system
T2 sequence (P08069 999-1274 limits assumed): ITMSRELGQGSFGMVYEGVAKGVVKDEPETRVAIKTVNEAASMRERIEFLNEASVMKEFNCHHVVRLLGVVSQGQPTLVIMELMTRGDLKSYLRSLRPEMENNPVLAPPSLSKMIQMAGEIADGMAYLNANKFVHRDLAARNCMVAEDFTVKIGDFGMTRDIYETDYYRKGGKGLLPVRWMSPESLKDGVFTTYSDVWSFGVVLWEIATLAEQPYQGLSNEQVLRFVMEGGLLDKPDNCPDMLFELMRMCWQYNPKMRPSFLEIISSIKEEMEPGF
In short: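 Recombinant His- or GST-tagged kinase domains from baculovirus were assayed with poly(Glu-Tyr, 4:1) substrate and 10 μM ATP in Tris-HCl pH 7.5 with Mg2+/Mn2+. Kinase-Glo: 37° C for 60 minutes, residual ATP read by luminescence. IC50 from non-linear regression over eight concentrations, 1 nM to 20 μM.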

Row | Structure (SMILES) | IC50 (IGF1 receptor) | IC50 (IGF1R tyrosine kinase)
1 | Cc1cc(C)c(OC[C@H](O)CNc2cc[nH]c(=O)c2-c2nc3cc4c(cc3[nH]2)C(=O)N(C2CCN(C)CC2)C4=O)cc1Cl [compound 108] | 5 to 15 µM | 0.5 to 5 µM
2 | CN1CCC(N2C(=O)c3cc4nc(-c5c(NC[C@@H](O)COc6c(F)ccc(Cl)c6F)cc[nH]c5=O)[nH]c4cc3C2=O)CC1 [compound 95] | 5 to 15 µM | < 0.5 µM
3 | COc1cccc(OCC(O)CNc2cc[nH]c(=O)c2-c2nc3cc4c(cc3[nH]2)C(=O)N(C2CCN(C)CC2)C4=O)c1 (centres unmarked) [compound 6] | 0.5 to 5 µM | < 0.5 µM
4 | CN1CCC(N2C(=O)c3cc4nc(-c5c(NC[C@@H](O)COc6cccc7ccccc67)cc[nH]c5=O)[nH]c4cc3C2=O)CC1 [compound 87] | 0.5 to 5 µM | < 0.5 µM
5 | CCN1CCC(N2C(=O)c3cc4nc(-c5c(NC[C@@H](O)COc6ccc(C)cc6C)cc[nH]c5=O)[nH]c4cc3C2=O)CC1 [compound 143] | < 0.5 µM | < 0.5 µM
6 | Cc1ccc(OC[C@@H](O)CNc2cc[nH]c(=O)c2-c2nc3cc4c(cc3[nH]2)C(=O)N([C@@H]2CCN(C)C2)C4=O)c(C)c1 [compound 107] | 5 to 15 µM | < 0.5 µM
7 | Cc1c(Cl)cccc1OC[C@H](O)CNc1cc[nH]c(=O)c1-c1nc2cc3c(cc2[nH]1)C(=O)N(C1CCN(C)CC1)C3=O [compound 94] | 0.5 to 5 µM | < 0.5 µM
8 | O=C1c2cc3nc(-c4c(NC[C@@H](O)c5cccc(Cl)c5)cc[nH]c4=O)[nH]c3cc2C(=O)N1[C@@H]1CN2CCC1CC2 [compound 33] | > 15 µM | < 0.5 µM
9 | CCc1cc(C)ccc1OC[C@H](O)CNc1cc[nH]c(=O)c1-c1nc2cc3c(cc2[nH]1)CN(C1CCN(C)CC1)C3=O [compound 141] | 0.5 to 5 µM | < 0.5 µM
10 | C[C@H](O)CN1C(=O)c2cc3nc(-c4c(NC[C@@H](O)c5cccc(Cl)c5)cc[nH]c4=O)[nH]c3cc2C1=O [compound 31] | 5 to 15 µM | 5 to 15 µM
11 | CN1CCC(N2C(=O)c3cc4nc(-c5c(NC[C@@H](O)COc6cccc(C(F)(F)F)c6)cc[nH]c5=O)[nH]c4cc3C2=O)CC1 [compound 97] | 0.5 to 5 µM | 0.5 to 5 µM
12 | Cc1ccc(OC[C@H](O)CNc2cc[nH]c(=O)c2-c2nc3c(C)c4c(cc3[nH]2)C(=O)N(C2CCN(C)CC2)C4=O)c(C)c1 [compound 110] | 5 to 15 µM | < 0.5 µM
13 | Cc1ccc(OC[C@H](O)CNc2cc[nH]c(=O)c2-c2nc3cc4c(c(C)c3[nH]2)CN(C2CCN(C)CC2)C4=O)c(C)c1 [compound 132] | 0.5 to 5 µM | < 0.5 µM
14 | Cc1cc(C)c(OC[C@H](O)CNc2cc[nH]c(=O)c2-c2nc3cc4c(cc3[nH]2)C(=O)N(C2CCN(C)CC2)C4=O)c(C)c1 [compound 98] | 5 to 15 µM | < 0.5 µM
15 | Cc1ccc2c(ccn2C[C@H](O)CNc2cc[nH]c(=O)c2-c2nc3cc4c(cc3[nH]2)C(=O)N(C2CCN(C)CC2)C4=O)c1 [compound 131] | 0.5 to 5 µM | 5 to 15 µM
16 | Cc1ncsc1CCN1C(=O)c2cc3nc(-c4c(NC[C@@H](O)c5cccc(Cl)c5)cc[nH]c4=O)[nH]c3cc2C1=O [compound 32] | 5 to 15 µM | 5 to 15 µM
17 | Cc1cc(C)c(OC[C@H](O)CNc2cc[nH]c(=O)c2-c2nc3cc4c(cc3[nH]2)C(=O)N(C2CCN(C)CC2)C4=O)c(CS(C)(=O)=O)c1 [compound 84] | 0.5 to 5 µM | 0.5 to 5 µM
18 | CN1CCC(N2C(=O)c3cc4nc(-c5c(N[C@H](CO)Cc6c[nH]cn6)cc[nH]c5=O)[nH]c4cc3C2=O)CC1 [compound 2] | > 15 µM | > 15 µM
19 | CN1CCC(N2C(=O)c3cc4nc(-c5c(NC[C@@H](O)COc6cccc(-c7ccccc7)c6)cc[nH]c5=O)[nH]c4cc3C2=O)CC1 [compound 89] | 0.5 to 5 µM | 0.5 to 5 µM

Row | Structure (SMILES) | IC50 (IGF1 receptor) | IC50 (IGF1R tyrosine kinase)
20 | O=C1c2cc3nc(-c4c(NC[C@@H](O)c5cccc(Cl)c5)cc[nH]c4=O)[nH]c3cc2C(=O)N1[C@H]1CN2CCC1CC2 [compound 34] | > 15 µM | < 0.5 µM
21 | Cc1ccc(OC[C@H](O)CNc2cc[nH]c(=O)c2-c2nc3cc4c(cc3[nH]2)C(=O)N(C2CCN(C)CC2)C4=O)cc1Cl [compound 99] | > 15 µM | < 0.5 µM
22 | Cc1ccc(OC[C@H](O)CNc2cc[nH]c(=O)c2-c2nc3cc4c(cc3[nH]2)CN(C2CCN(C)CC2)C4=O)c(C)c1 [compound 130] | 0.5 to 5 µM | < 0.5 µM
23 | CN1CCC(N2C(=O)c3cc4nc(-c5c(NC[C@@H](O)c6cccc(Cl)c6)cc[nH]c5=O)[nH]c4cc3C2=O)CC1 [compound 1] | < 0.5 µM | < 0.5 µM
24 | Cc1ccc(OC[C@H](O)CNc2cc[nH]c(=O)c2-c2nc3c(C)c4c(cc3[nH]2)CN(C2CCN(C)CC2)C4=O)c(C)c1 [compound 140] | 0.5 to 5 µM | < 0.5 µM
25 | CCN1CCC(N2Cc3cc4nc(-c5c(NC[C@@H](O)COc6ccc(C)cc6C)cc[nH]c5=O)[nH]c4cc3C2=O)CC1 [compound 144] | 0.5 to 5 µM | < 0.5 µM
26 | Cc1ccc(OCC(O)CNc2cc[nH]c(=O)c2-c2nc3cc4c(cc3[nH]2)C(=O)N(CC2CCN(CCO)CC2)C4=O)c(C)c1 (centres unmarked) [compound 37] | 5 to 15 µM | > 15 µM
27 | O=C1c2cc3nc(-c4c(NC[C@@H](O)c5cccc(Cl)c5)cc[nH]c4=O)[nH]c3cc2C(=O)N1C[C@@H]1CCCO1 [compound 29] | > 15 µM | > 15 µM
28 | CN1CCC(N2C(=O)c3cc4nc(-c5c(NC[C@@H](O)COc6cccc(OC(F)(F)C(F)F)c6)cc[nH]c5=O)[nH]c4cc3C2=O)CC1 [compound 91] | 0.5 to 5 µM | 5 to 15 µM
29 | O=C1c2cc3nc(-c4c(NC[C@@H](O)c5cccc(Cl)c5)cc[nH]c4=O)[nH]c3cc2C(=O)N1CCc1ccncc1 [compound 28] | > 15 µM | > 15 µM
30 | Cc1ccc(OC[C@@H](O)CNc2cc[nH]c(=O)c2-c2nc3cc4c(cc3[nH]2)C(=O)N([C@H]2CCN(C)C2)C4=O)c(C)c1 [compound 106] | 5 to 15 µM | < 0.5 µM
31 | Cc1ccc(OC[C@H](O)CNc2cc[nH]c(=O)c2-c2nc3cc4c(cc3[nH]2)C(=O)N(C2CCN(C)CC2)C4=O)c(C)c1 [compound 59] | 0.5 to 5 µM | < 0.5 µM
32 | Cc1ccc(Cl)c(C)c1OC[C@H](O)CNc1cc[nH]c(=O)c1-c1nc2cc3c(cc2[nH]1)C(=O)N(C1CCN(C)CC1)C3=O [compound 111] | > 15 µM | 0.5 to 5 µM
33 | COc1ccc(OC[C@H](O)CNc2cc[nH]c(=O)c2-c2nc3cc4c(cc3[nH]2)C(=O)N(C2CCN(C)CC2)C4=O)c(OC)c1OC [compound 93] | 0.5 to 5 µM | < 0.5 µM
34 | Cc1ccc(OC[C@@H](O)CNc2cc[nH]c(=O)c2-c2nc3cc4c(cc3[nH]2)C(=O)N(C2CCN(C)CC2)C4=O)c(C)c1 [compound 64] | > 15 µM | < 0.5 µM
35 | Cc1ccc(OC[C@H](O)CNc2cc[nH]c(=O)c2-c2nc3cc4c(cc3[nH]2)C(=O)N(C2CCNCC2)C4=O)c(C)c1 [compound 142] | < 0.5 µM | < 0.5 µM
36 | Cc1ccc(OC[C@H](O)CNc2cc[nH]c(=O)c2-c2nc3c(C)c4c(cc3[nH]2)C(=O)N(C2CCN(C)CC2)C4)c(C)c1 [compound 139] | 0.5 to 5 µM | < 0.5 µM
37 | CC(C)(CO)CN1C(=O)c2cc3nc(-c4c(NC[C@@H](O)c5cccc(Cl)c5)cc[nH]c4=O)[nH]c3cc2C1=O [compound 26] | 5 to 15 µM | 0.5 to 5 µM
